Molecules are shown by their SMILES. *1 amine or outer side, *2 acyl side, *3 side chain or, on linkers, in order; H or OH if unused. Where a SMILES comes first, the peptide text is derived from it. Bridges are numbered along the chain shown (N, C = ends). Roman numbers before positions name the chains, in order. [ ]: non-standard residue; d: D form. Actinocin(9to1) = Cc1c2oc3c(C)ccc(C(=O)[*:1])c3nc-2c(C(=O)[*:2])c(N)c1=O; NMeV = CN[C@H](C(=O)O)C(C)C; Sar = CNCC(=O)O

The results in this text go back to article PMC3176174 (OncoTargets and therapy, 2011).

What all share (assay type): cell-based, human
One assay concerns TIB-202 cell line. The experiment in a line: cells.
The subject of the next assay is MOLT-3 cell line. Nature of the assay: cells.
In another assay the test system is B1 cell line. The experiment in a line: cells.
The test system of assay [1] is MLL-rearranged leukemia cell lines (SEM, B1, KOPN8, MOLT-3, TIB-202). Nature of the assay: In-vitro cytotoxicity across the panel of leukemia cell lines. As to conditions: Homo sapiens, all five MLL-rearranged cell lines.
A further assay concerns SEM cell line. The experiment in a line: cells.
A further assay relates to KOPN8 cell line. The experiment in a line: cells.

For the compound `Cc1c2oc3c(C)ccc(C(=O)N[C@@H]4C(=O)N[C@H](C(C)C)C(=O)N5CCC[C@H]5C(=O)N(C)CC(=O)N(C)[C@@H](C(C)C)C(=O)O[C@@H]4C)c3nc-2c(C(=O)N[C@@H]2C(=O)N[C@H](C(C)C)C(=O)N3CCC[C@H]3C(=O)N(C)CC(=O)N(C)[C@@H](C(C)C)C(=O)O[C@@H]2C)c(N)c1=O` [Dactinomycin] (I: T[dV]P[Sar][NMeV] / II: T[dV]P[Sar][NMeV]; ester I:1-I:C, II:1-II:C; linker I:N-II:N via Actinocin(9to1)), the IC50 was under 1e-05 µM with TIB-202 cell line (Homo sapiens, 96 h); under 0.01 µM in the assay with MOLT-3 cell line (Homo sapiens, MOLT-3, 96 h); under 0.01 µM in the assay on B1 cell line (Homo sapiens, 96 h); under 1 µM in assay [1]; under 0.01 µM in the assay on SEM cell line (Homo sapiens, 96 h).

Turning to `NC(=O)NO` [Hydroxyurea], the IC50 with TIB-202 cell line (Table S1, TIB-202, 96 hours) was over 5 µM; in the assay with KOPN8 cell line (Table S1, KOPN8, 96 hours), over 5 µM; in the assay with MOLT-3 cell line (Table S1, MOLT-3, 96 hours) it was over 10 µM; in the assay with B1 cell line (Table S1, B1, 96 hours) it was over 10 µM; in the assay on SEM cell line (Table S1, SEM, 96 hours), over 10 µM.

On to `O=P1(NCCCl)OCCCN1CCCl` (stereo not shown) [Ifosfamide], for which the IC50 with TIB-202 cell line (Homo sapiens, 96 h) is over 5 µM; in the assay on KOPN8 cell line (Homo sapiens, KOPN-8, 96 h), over 5 µM; with MOLT-3 cell line (Homo sapiens, MOLT-3, 96 h), over 10 µM; with B1 cell line (Homo sapiens, 96 h), over 10 µM; in the assay on SEM cell line (Homo sapiens, 96 h), over 10 µM.

For `CC(C)Cn1cnc2c(N)nc3ccccc3c21` [Imiquimod], the IC50 is over 10 µM in the assay on TIB-202 cell line (Homo sapiens, 96 h); 2.9 µM with KOPN8 cell line (Homo sapiens, KOPN-8, 96 h); over 10 µM in the assay with MOLT-3 cell line (Homo sapiens, MOLT-3, 96 h); over 10 µM in the assay on B1 cell line (Homo sapiens, 96 h); over 10 µM with SEM cell line (Homo sapiens, 96 h).

`CCc1c2c(nc3ccc(OC(=O)N4CCC(N5CCCCC5)CC4)cc13)-c1cc3c(c(=O)n1C2)COC(=O)[C@]3(O)CC` [Irinotecan]: the IC50 in the assay with TIB-202 cell line (Homo sapiens, 96 h) was found to be 2.53 µM; in the assay with KOPN8 cell line (Homo sapiens, KOPN-8, 96 h), 1.69 µM; in the assay with MOLT-3 cell line (Homo sapiens, MOLT-3, 96 h), 3.92 µM; in the assay with B1 cell line (Homo sapiens, 96 h) it was 2.29 µM; in the assay on SEM cell line (Homo sapiens, 96 h), 3.4 µM.

As for `CS(=O)(=O)CCNCc1ccc(-c2ccc3ncnc(Nc4ccc(OCc5cccc(F)c5)c(Cl)c4)c3c2)o1` [Lapatinib], the concentration for half-maximal inhibition (IC50) is 7.42 µM in the assay with TIB-202 cell line (Homo sapiens, 96 h); 5.2 µM in the assay on KOPN8 cell line (Homo sapiens, KOPN-8, 96 h); over 10 µM with MOLT-3 cell line (Homo sapiens, MOLT-3, 96 h); 5.7 µM in the assay with B1 cell line (Homo sapiens, 96 h); 4.73 µM in the assay on SEM cell line (Homo sapiens, 96 h).

In the case of `Nc1cccc2c1CN(C1CCC(=O)NC1=O)C2=O` (stereo not shown) [Lenalidomide], the IC50 in the assay with TIB-202 cell line (Homo sapiens, 96 h) is over 10 µM; in the assay with KOPN8 cell line (Homo sapiens, KOPN-8, 96 h) it was over 10 µM; with MOLT-3 cell line (Homo sapiens, MOLT-3, 96 h), 10 µM; with B1 cell line (Homo sapiens, 96 h), over 10 µM; in the assay on SEM cell line (Homo sapiens, 96 h) it was over 10 µM.

As for `N#Cc1ccc(C(c2ccc(C#N)cc2)n2cncn2)cc1` [Letrozole], the 50% inhibitory concentration (IC50) in the assay on TIB-202 cell line (Homo sapiens, 96 h) is over 10 µM; in the assay with KOPN8 cell line (Homo sapiens, KOPN-8, 96 h) it was over 10 µM; in the assay with MOLT-3 cell line (Homo sapiens, MOLT-3, 96 h) it was over 10 µM; in the assay with B1 cell line (Homo sapiens, 96 h) it was over 10 µM; with SEM cell line (Homo sapiens, 96 h) it was over 10 µM.

As to `O=NN(CCCl)C(=O)NC1CCCCC1` [Lomustine], the IC50 in the assay on TIB-202 cell line (Homo sapiens, 96 h) is over 5 µM; in the assay with KOPN8 cell line (Homo sapiens, KOPN-8, 96 h), over 5 µM; with MOLT-3 cell line (Homo sapiens, MOLT-3, 96 h) it was over 10 µM; with B1 cell line (Homo sapiens, 96 h) it was 8.32 µM; with SEM cell line (Homo sapiens, 96 h) it was 9.35 µM.

`CC(=O)O[C@]1(C(C)=O)CC[C@H]2[C@@H]3C=C(C)C4=CC(=O)CC[C@]4(C)[C@H]3CC[C@@]21C` [Megestrol acetate]: the IC50 is over 5 µM in the assay on TIB-202 cell line (Homo sapiens, 96 h); over 5 µM with KOPN8 cell line (Homo sapiens, KOPN-8, 96 h); over 10 µM in the assay on MOLT-3 cell line (Homo sapiens, MOLT-3, 96 h); over 10 µM in the assay with B1 cell line (Homo sapiens, 96 h); over 10 µM in the assay on SEM cell line (Homo sapiens, 96 h).

For the compound `N[C@@H](Cc1ccc(N(CCCl)CCCl)cc1)C(=O)O` [Melphalan], the half-maximal inhibitory concentration (IC50) with TIB-202 cell line (Homo sapiens, 96 h) was 2.2 µM; in the assay with KOPN8 cell line (Homo sapiens, KOPN-8, 96 h), 0.425 µM; in the assay on MOLT-3 cell line (Homo sapiens, MOLT-3, 96 h) it was 1.03 µM; with B1 cell line (Homo sapiens, 96 h), 4.08 µM; with SEM cell line (Homo sapiens, 96 h), 5.8 µM.

As to `S=c1[nH]cnc2nc[nH]c12` [Mercaptopurine], the half-inhibitory concentration (IC50) is over 5 µM with TIB-202 cell line (Homo sapiens, 96 h); over 5 µM in the assay on KOPN8 cell line (Homo sapiens, KOPN-8, 96 h); over 10 µM in the assay with MOLT-3 cell line (Homo sapiens, MOLT-3, 96 h); over 10 µM with B1 cell line (Homo sapiens, 96 h); over 10 µM in the assay on SEM cell line (Homo sapiens, 96 h).

Take `COc1c2occc2cc2ccc(=O)oc12` [Methoxsalen]: the half-maximal inhibitory concentration (IC50) is over 5 µM with TIB-202 cell line (Homo sapiens, 96 h); over 5 µM with KOPN8 cell line (Homo sapiens, KOPN-8, 96 h); over 10 µM with MOLT-3 cell line (Homo sapiens, MOLT-3, 96 h); over 10 µM with B1 cell line (Homo sapiens, 96 h); over 10 µM in the assay on SEM cell line (Homo sapiens, 96 h).

As for `Clc1ccc(C(c2ccccc2Cl)C(Cl)Cl)cc1` (stereo not shown) [Mitotane], the IC50 is over 5 µM with TIB-202 cell line (Homo sapiens, 96 h); over 5 µM in the assay with KOPN8 cell line (Homo sapiens, KOPN-8, 96 h); over 10 µM in the assay with MOLT-3 cell line (Homo sapiens, MOLT-3, 96 h); over 10 µM in the assay on B1 cell line (Homo sapiens, 96 h); over 10 µM in the assay on SEM cell line (Homo sapiens, 96 h).

Take `COc1nc(N)nc2c1ncn2[C@@H]1O[C@H](CO)[C@@H](O)[C@@H]1O` [Nelarabine]: the concentration for half-maximal inhibition (IC50) was over 10 µM in the assay on TIB-202 cell line (Homo sapiens, 96 h); over 10 µM with KOPN8 cell line (Homo sapiens, KOPN-8, 96 h); 1.23 µM in the assay with MOLT-3 cell line (Homo sapiens, MOLT-3, 96 h); over 10 µM with B1 cell line (Homo sapiens, 96 h); over 10 µM in the assay with SEM cell line (Homo sapiens, 96 h).

Turning to `Cc1cn(-c2cc(NC(=O)c3ccc(C)c(Nc4nccc(-c5cccnc5)n4)c3)cc(C(F)(F)F)c2)cn1` [Nilotinib], the half-maximal inhibitory concentration (IC50) is under 0.01 µM in the assay with TIB-202 cell line (Homo sapiens, 96 h); over 10 µM in the assay with KOPN8 cell line (Homo sapiens, KOPN-8, 96 h); over 10 µM in the assay on MOLT-3 cell line (Homo sapiens, MOLT-3, 96 h); under 0.01 µM in the assay with B1 cell line (Homo sapiens, 96 h); over 10 µM in the assay on SEM cell line (Homo sapiens, 96 h).

Consider `O=C1[O][Pt]2([NH][C@@H]3CCCC[C@H]3[NH]2)[O]C1=O` [Oxaliplatin], for which the IC50 in the assay with TIB-202 cell line (Table S1, TIB-202, 96 hours) came to 6.2 µM; with KOPN8 cell line (Table S1, KOPN8, 96 hours), 0.309 µM; with MOLT-3 cell line (Table S1, MOLT-3, 96 hours), 0.969 µM; in the assay on B1 cell line (Table S1, B1, 96 hours), 3.68 µM; in the assay with SEM cell line (Table S1, SEM, 96 hours), 5.67 µM.
